Here are results for 52 compounds from US20250304537A1 (Repare Therapeutics Inc., priority 2022, published 2025).

Like-named read-outs stand apart in the source and are kept apart here. Bounds are passed on as bounds.

For assay [1], the system named is PKMYT1 (CDK1 pThr14) in FUOV1 cells. The experiment in a line: PKMYT1 cell-based activity assay, CDK1 pThr14 AlphaLISA in FUOV1 cells. Conditions: 2 h incubation, read-out: FUOV-1 CDK1 pThr14 IC50. Summed up:
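IC50 was derived from AlphaLISA signal (excitation 680 nm, emission 615 nm) for phospho-Thr14 CDK1 in lysates. The detection antibodies were rabbit anti-pThr14 and mouse anti-total CDK1, each at 5 nM. FUOV1 ovarian cells were exposed to compound for 2 hours before lysis.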

The target of assay [2] is recombinant human Myt1 (full length PKMYT1) (Homo sapiens (Human), UniProt Q99640). In words: Recombinant human Myt1 kinase assay (ADP-Glo). Format: biochemical. Conditions: 10 μM ATP. In a few lines: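 ADP-Glo luminescence measured ATP hydrolysis by recombinant full-length PKMYT1 (18 nM) after 60 min at 30 °C with 10 μM ATP. Compounds in 0.5% DMSO were added to the enzyme 15 min before ATP, at 22 °C, in HEPES/MgCl2/MnCl2 buffer. IC50 and percent maximal inhibition were derived.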
Sequence of recombinant human Myt1 (full length PKMYT1) (Q99640 whole entry): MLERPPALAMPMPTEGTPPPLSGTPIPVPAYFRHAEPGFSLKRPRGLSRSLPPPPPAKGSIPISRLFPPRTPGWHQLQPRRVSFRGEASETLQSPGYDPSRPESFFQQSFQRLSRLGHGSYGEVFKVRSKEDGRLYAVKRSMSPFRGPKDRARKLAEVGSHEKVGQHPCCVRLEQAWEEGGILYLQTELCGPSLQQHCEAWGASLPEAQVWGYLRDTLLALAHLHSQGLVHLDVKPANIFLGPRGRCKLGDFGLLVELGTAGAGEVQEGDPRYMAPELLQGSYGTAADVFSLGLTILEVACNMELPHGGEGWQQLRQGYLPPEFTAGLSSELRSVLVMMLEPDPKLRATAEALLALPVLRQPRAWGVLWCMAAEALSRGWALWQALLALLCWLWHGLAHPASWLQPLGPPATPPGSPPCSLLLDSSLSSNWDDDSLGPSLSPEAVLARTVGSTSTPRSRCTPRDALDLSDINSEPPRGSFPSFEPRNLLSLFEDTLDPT

In the case of `Cc1ccc2[nH]ncc2c1-c1cc(-c2cccc(O[C@H]3CCOC3)n2)nc(C(N)=O)c1N` (atropisomer, axis not shown) [Compound 226], the IC50 in assay [1] (2 h) is 367 nM; in assay [2], 4 nM. Regarding `Cc1ccc2[nH]ncc2c1-c1cc(-c2cccc(O[C@@H]3CCOC3)n2)nc(C(N)=O)c1N` (atropisomer, axis not shown) [Compound 227, (R)-5-amino-4-(5-methyl-1H-indazol-4-yl)-6′-(((R)-tetrahydrofuran-3-yl)oxy)-[2,2′-bipyridine]-6-carboxamide], the values for the IC50 in assay [1] (2 h) and in assay [2] were 198 nM and 2 nM, respectively. As to `Cc1ccc2[nH]ncc2c1-c1cc(-c2cccc(OCc3cccnn3)n2)nc(C(N)=O)c1N` (atropisomer, axis not shown) [Compound 260], the IC50 in assay [1] stood at 167 nM; in assay [2], 4 nM. The like results for `Cc1ccc2[nH]ncc2c1-c1cc(-c2cccc(OCc3ncco3)n2)nc(C(N)=O)c1N` (atropisomer, axis not shown) [Compound 273] were, in that order, 4560 nM and 716 nM. `CO[C@H](COc1nccc(-c2cc(-c3c(C)ccc4[nH]ncc34)c(N)c(C(N)=O)n2)n1)c1ccccc1` (atropisomer, axis not shown) [Compound 309]: the results for the 50% inhibitory concentration (IC50) in assay [1] (2 h) and in assay [2] were 22 nM and 5 nM, respectively. In the case of `CC[C@H](COc1nccc(-c2cc(-c3c(C)ccc4[nH]ncc34)c(N)c(C(N)=O)n2)n1)OC` (atropisomer, axis not shown) [Compound 333], the half-maximal inhibitory concentration (IC50) in assay [1] (2 h) amounted to 21 nM; in assay [2], 3 nM. The like results for `CC[C@@H](COc1nccc(-c2cc(-c3c(C)ccc4[nH]ncc34)c(N)c(C(N)=O)n2)n1)OC` (atropisomer, axis not shown) [Compound 334] were, in that order, 1180 nM and 400 nM. In the case of `Cc1ccc2[nH]ncc2c1-c1cc(-c2cccc(OC[C@H](N)c3ccccc3)n2)nc(C(N)=O)c1N` (atropisomer, axis not shown) [Compound 338], the IC50 in assay [1] came out at 284 nM; in assay [2] it was 165 nM. On to `Cc1ccc2[nH]ncc2c1-c1cc(-c2ccnc(N[C@H](CO)c3ccccc3)n2)nc(C(N)=O)c1N` (atropisomer, axis not shown) [Compound 371], for which the 50% inhibitory concentration (IC50) in assay [1] (2 h) was 2420 nM; in assay [2] it was 466 nM. The like results for `Cc1ccc(O)cc1-c1nc(-c2ccccc2)nc(C(N)=O)c1N` [Compound 2, 5-amino-6-(5-hydroxy-2-methylphenyl)-2-phenylpyrimidine-4-carboxamide] were, in that order, 517 nM and 11 nM. On the same counts, the results for `Cc1ccc(O)cc1-c1nc(-c2nccs2)nc(C(N)=O)c1N` [Compound 3, 5-amino-6-(5-hydroxy-2-methylphenyl)-2-(thiazol-2-yl)pyrimidine-4-carboxamide] are 560 nM and 21 nM. The like results for `Cc1ccc(O)cc1-c1nc(-c2ccnc(N)c2)nc(C(N)=O)c1N` [Compound 4] were, in that order, 943 nM and 10 nM. Turning to `Cc1ccc(O)cc1-c1nc(-c2ccc(N3CCN(CCO)CC3)cc2)nc(C(N)=O)c1N` [Compound 6], the values for the IC50 in assay [1] (2 h) and in assay [2] were 1010 nM and 24 nM, respectively.

For the compound `Cc1ccc(O)cc1-c1nc(-c2ccc(C(F)(F)F)cc2)nc(C(N)=O)c1N` [Compound 7], the IC50 in assay [1] (2 h) was 737 nM; in assay [2], 31 nM. For the compound `Cc1ccc(O)c(C)c1-c1cc(-c2nccs2)nc(C(N)=O)c1N` [Compound 13, 3-amino-4-(3-hydroxy-2,6-dimethylphenyl)-6-(thiazol-2-yl)picolinamide], the IC50 in assay [1] (2 h) was 64 nM; in assay [2], under 3.5 nM.

In the case of `Cc1ccc(O)c(C)c1-c1cc(-c2ccnc(N)c2)nc(C(N)=O)c1N` [Compound 14], the IC50 in assay [1] was 132 nM; in assay [2], 4 nM.

For `Cc1ccc(O)c(C)c1-c1cc(-c2ccc(C(F)(F)F)cc2)nc(C(N)=O)c1N` [Compound 15], the figures for the IC50 in assay [1] (2 h) and in assay [2] were 2520 nM and 20 nM, respectively. In the case of `Cc1ccc(O)c(C)c1-c1cc(-c2cc(F)cc(F)c2)nc(C(N)=O)c1N` [Compound 16, 3-amino-6-(3,5-difluorophenyl)-4-(3-hydroxy-2,6-dimethylphenyl)picolinamide], the IC50 in assay [1] (2 h) was found to be 575 nM; in assay [2], 5 nM. The like results for `Cc1ccc(O)c(C)c1-c1cc(Cl)nc(C(N)=O)c1N` [Compound 17] were, in that order, 8670 nM and 36 nM.

With `Cc1ccc(O)cc1-c1nc(-c2ccc(Cl)cc2)nc(C(N)=O)c1N` [Compound 18], the IC50 stood at 3530 nM in assay [1] (2 h) and 28 nM in assay [2].

For the compound `Cc1ccc(O)c(C)c1-c1cc(-c2ccccn2)nc(C(N)=O)c1N` [Compound 19], the IC50 in assay [1] (2 h) stood at 14 nM; in assay [2], 4 nM.

Take `Cc1ccc(O)c(C)c1-c1cc(-c2cnccn2)nc(C(N)=O)c1N` [Compound 26]: the values for the IC50 in assay [1] (2 h) and in assay [2] were 76 nM and 3 nM, respectively.

On to `Cc1ccc(O)cc1-c1nc(-c2cccc(N3CCOCC3)c2)nc(C(N)=O)c1N` [Compound 27], for which the IC50 in assay [1] (2 h) worked out at 319 nM; in assay [2] it was 11 nM. On the same counts, the results for `Cc1ccc(O)cc1-c1nc(-c2cccc(Cl)c2)nc(C(N)=O)c1N` [Compound 29] are 1220 nM and 25 nM.

In the case of `Cc1ccc(O)c(C)c1-c1cc(-c2ccns2)nc(C(N)=O)c1N` [Compound 38], the IC50 in assay [1] (2 h) amounted to 60 nM; in assay [2], 3 nM.

Turning to `Cc1ccc(O)c(C)c1-c1cc(-c2ncc(F)cc2F)nc(C(N)=O)c1N` [Compound 39], the IC50 in assay [1] (2 h) is 266 nM; in assay [2], 7 nM. Take `Cc1ccc(-c2cc(-c3c(C)ccc(O)c3C)c(N)c(C(N)=O)n2)nc1` [Compound 40]: the IC50 was determined as 208 nM in assay [1] (2 h) and 4 nM in assay [2]. Consider `Cc1ccc(O)c(C)c1-c1cc(-c2cccc(N3CCOCC3)c2)nc(C(N)=O)c1N` [Compound 42], for which the results for the IC50 in assay [1] (2 h) and in assay [2] were 169 nM and 7 nM, respectively. On the same counts, the results for `Cc1ccc(O)c(C)c1-c1cc(-c2c[nH]cn2)nc(C(N)=O)c1N` [Compound 43] are 336 nM and 6 nM. With `Cc1ccc(O)c(C)c1-c1cc(-c2ccnc(N)c2)nc(C(N)=O)c1N` [Compound 45], the concentration for half-maximal inhibition (IC50) in assay [1] turned out to be 60 nM; in assay [2], 2 nM. With `Cc1ccc2[nH]ncc2c1-c1cc(-c2cccc(OCC(N)C(F)(F)F)n2)nc(C(N)=O)c1N` (stereo not shown) [Compound 355], the IC50 in assay [2] turned out to be 7 nM. On to `Cc1ccc2[nH]ncc2c1-c1cc(-c2cccc(OC[C@H]3CCCO3)n2)nc(C(N)=O)c1N` [Compound 356], for which, in assay [2], the IC50 amounted to 9 nM.

For `Cc1ccc2[nH]ncc2c1-c1cc(-c2ccnc(N3CCC(O)CC3)n2)nc(C(N)=O)c1N` [Compound 359], the IC50 in assay [2] is 4 nM. On the same count and under the same terms, under `CCC(COc1cccc(-c2cc(-c3c(C)ccc4[nH]ncc34)c(N)c(C(N)=O)n2)c1)OC` (stereo not shown) [Compound 360] stands 330 nM; under `CCC(C)COc1cccc(-c2cc(-c3c(C)ccc4[nH]ncc34)c(N)c(C(N)=O)n2)n1` (stereo not shown) [Compound 361], 35 nM.

As to `Cc1ccc2[nH]ncc2c1-c1nc(-c2cccc3cc[nH]c23)nc(C(N)=O)c1N` [Compound 366], the IC50 in assay [2] turned out to be 28 nM. The same measure, in the same setting: as for `Cc1ccc2[nH]ncc2c1-c1cc(-c2ccnc(N3CCCC(O)C3)n2)nc(C(N)=O)c1N` (stereo not shown) [Compound 367], the figure is 9 nM; as for `Cc1ccc2[nH]ncc2c1-c1cc(-c2ccnc(N[C@H]3CC[C@H](O)CC3)n2)nc(C(N)=O)c1N` [Compound 369], 4 nM; as for `Cc1ccc2[nH]ncc2c1-c1cc(-c2ccnc(N3CCCC3CO)n2)nc(C(N)=O)c1N` (stereo not shown) [Compound 373], 20 nM.

On to `Cc1ccc2[nH]ncc2c1-c1cc(-c2cccc(OC[C@H]3CCCN3)n2)nc(C(N)=O)c1N` [Compound 374], for which the IC50 in assay [2] amounted to 14 nM.

Regarding `CSC(C)COc1cccc(-c2cc(-c3c(C)ccc4[nH]ncc34)c(N)c(C(N)=O)n2)n1` (stereo not shown) [Compound 375], in assay [2], the IC50 was 14 nM. In the case of `Cc1ccc2[nH]ncc2c1-c1nc(-c2cccc3nc[nH]c23)nc(C(N)=O)c1N` [Compound 378], in assay [2], the IC50 was 18 nM. Same read-out and setting: as for `Cc1ccc2[nH]ncc2c1-c1nc(-c2cccc3ccsc23)nc(C(N)=O)c1N` [Compound 379], the figure is 14 nM; as for `Cc1ccc2[nH]ncc2c1-c1nc(-c2cccc3c2NCC3)nc(C(N)=O)c1N` [Compound 386], 29 nM; as for `Cc1ccc2[nH]ncc2c1-c1nc(-c2cccc3nnsc23)nc(C(N)=O)c1N` [Compound 390], 5 nM. Same read-out and setting: as for `Cc1ccc2[nH]ncc2c1-c1cc(-c2ccnc(N3CCCCC3CCO)n2)nc(C(N)=O)c1N` (stereo not shown) [Compound 404], the figure is 24 nM; as for `Cc1ccc2[nH]ncc2c1-c1nc(-c2ccccc2NC(=O)C(C)C)nc(C(N)=O)c1N` [Compound 407], 4 nM; as for `Cc1ccc2[nH]ncc2c1-c1nc(-c2cccc(Cl)c2N)nc(C(N)=O)c1N` [Compound 444], 43 nM. For `Cc1ccc2[nH]ncc2c1-c1nc(-c2cc(F)c(F)cc2NC2CN(C(=O)OC(C)(C)C)C2)nc(C(N)=O)c1N` [Compound 479], the IC50 in assay [2] was over 2000 nM.

As to `CCC(COc1cccc(-c2cc(-c3c(C)ccc4[nH]ncc34)cc(C(N)=O)n2)n1)OC` (stereo not shown) [Compound 498], in assay [2], the IC50 was found to be 93 nM. Same read-out and setting: as for `COCC(=O)c1ccccc1-c1nc(C(N)=O)c(N)c(-c2c(C)ccc3[nH]ncc23)n1` [Compound 793], the figure is 266 nM; as for `CCS(=O)(=O)c1ccccc1-c1nc(C(N)=O)c(N)c(-c2c(C)ccc3[nH]ncc23)n1` [Compound 800], 1010 nM.
